Results reported in US11993575B1, “Ethyl [4,4-bis(4-bromophenyl)-2,5-dioxoimidazolidin-1-yl]acetate as an antimicrobial compound” (KING FAISAL UNIVERSITY, priority 2023, dated 2024).

Legend:
Format in all cases: cell-based
Conditions in all cases: after 10, 20, 40 and 60 minutes at all dilutions 1:100, 1:200, 1:400, 1:800
Candida albicans = assay: Antimicrobial testing by agar dilution, Candida albicans
Experimental: (§1) The antimicrobial properties of the ethyl [4,4-bis(4-bromophenyl)-2,5-dioxoimidazolidin-1-yl]acetate was studied by the method of agar dilution. Test solutions of each compound was prepared in concentration of 1% using dimethylformamide as a solvent then they are diluted in physiological solution to obtain the final experimental dilutions 1:100, 1:200, 1:400, 1:800. The effect of these substances are compared with furacillin in a controllable study. The testing microbes used were gram positive bacteria Staphylococcus aureus, gram negative bacteria Escherichia coli, Pseudomonas aeruginosa and Candida albicans fungi were taken. The experiments used for this survey were meat-pentonlu agar (EPA) for cultivation of bacteria and Saburo environment for fungi. Each experiment used 1 ml of test solution on each plate 500 min. Add 2 drops of emulsified with microbes feel. All experimental samples were taken from the agar after 10, 20, 40, 60 minutes in the environment on the basis of Patrk planted. Bacteria were cultivated at a temperature of 37° C. for 1 day and the mushroom was kept in a thermostat for […] at a temperature of 28° C. Then the results were checked.

Escherichia coli = assay: Antimicrobial testing by agar dilution, Escherichia coli
Experimental: as §1

Pseudomonas aeruginosa = assay: Antimicrobial testing by agar dilution, Pseudomonas aeruginosa
Experimental: as §1

Staphylococcus aureus = assay: Antimicrobial testing by agar dilution, Staphylococcus aureus
Experimental: as §1

Measured: inhibition activity

CCOC(=O)CN1C(=O)NC(c2ccc(Br)cc2)(c2ccc(Br)cc2)C1=O [ethyl [4,4-bis(4-bromophenyl)-2,5-dioxoimidazolidin-1-yl]acetate]
higher inhibition activity: Candida albicans | Escherichia coli | Pseudomonas aeruginosa | Staphylococcus aureus
